Experimental findings from patent publication US11155557B2, “Pyrazolopyrimidine compounds and methods of use thereof” (Genentech, Inc., priority 2016, dated 2021) are described below.

Like-named read-outs stand apart in the source and are kept apart here.

Test [1] deals with isolated recombinant JAK2 kinase domain (Homo sapiens (Human), UniProt O60674). As to the kind of experiment: JAK2 enzyme assay (Caliper LabChip, Ki).
In test [2] the test system is JAK1-dependent STAT6 phosphorylation in BEAS-2B human bronchial epithelial cells. Put plainly: JAK1 pathway assay: IL-13 stimulated STAT6 phosphorylation in BEAS-2B cells. It is filed as cell-based. To be noted: Homo sapiens, BEAS-2B, BEAS-2B cells, IL-13 stimulation; read-out: IL-13 p-STAT6 BEAS-2B IC50. The essentials: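 BEAS-2B bronchial epithelial cells plated one day before, run in complete growth medium. Phospho-STAT6 in lysates measured by MesoScale Discovery; EC50 reported.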

For test [3], the target named is isolated recombinant JAK1 kinase domain (Homo sapiens (Human), UniProt P23458). As to the kind of experiment: JAK1 enzyme assay (Caliper LabChip, Ki). The test is classed as biochemical. On the procedure:
The activity of the isolated recombinant JAK1 and JAK2 kinase domain was measured by monitoring phosphorylation of a peptide derived from JAK3 ([…] fluorescently labeled on the N-terminus with 5-carboxyfluorescein) using the Caliper LabChip R technology (Caliper Life Sciences, Hopkinton, Mass.).

Chain of isolated recombinant JAK1 kinase domain (P23458 875-1153): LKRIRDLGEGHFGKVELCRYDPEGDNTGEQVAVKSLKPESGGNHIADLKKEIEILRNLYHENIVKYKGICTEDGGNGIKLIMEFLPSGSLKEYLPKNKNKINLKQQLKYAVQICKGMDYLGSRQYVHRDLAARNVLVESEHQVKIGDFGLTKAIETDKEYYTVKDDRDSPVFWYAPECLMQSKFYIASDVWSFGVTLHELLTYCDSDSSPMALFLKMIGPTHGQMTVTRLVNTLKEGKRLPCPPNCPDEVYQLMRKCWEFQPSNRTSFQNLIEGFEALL
Chain of isolated recombinant JAK2 kinase domain (O60674 849-1124): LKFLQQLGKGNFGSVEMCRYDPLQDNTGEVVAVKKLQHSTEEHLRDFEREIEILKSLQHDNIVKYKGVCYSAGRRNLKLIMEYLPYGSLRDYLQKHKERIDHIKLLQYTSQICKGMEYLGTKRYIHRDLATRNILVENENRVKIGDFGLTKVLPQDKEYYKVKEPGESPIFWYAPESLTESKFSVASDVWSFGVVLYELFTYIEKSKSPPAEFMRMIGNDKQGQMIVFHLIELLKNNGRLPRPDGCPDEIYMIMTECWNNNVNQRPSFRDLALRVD

As to `CC[C@@H](O)Cn1cc(NC(=O)c2cnn3cccnc23)c(-c2cc3c(cc2OC(F)F)NCCO3)n1` [Example 121, N-[3-[6-(difluoromethoxy)-3,4-dihydro-2H-1,4-benzoxazin-7-yl]-1-[(2R)-2-hydroxybutyl]pyrazol-4-yl]pyrazolo[1,5-a]pyrimidine-3-carboxamide], the Ki stood at 0.45 nM in test [1] and 0.41 nM in test [3]. The IC50 in test [2] was 38 nM.

Take `CC[C@H](O)Cn1cc(NC(=O)c2cnn3cccnc23)c(-c2cc3c(cc2OC(F)F)NCCO3)n1` [Example 122, N-[3-[6-(difluoromethoxy)-3,4-dihydro-2H-1,4-benzoxazin-7-yl]-1-[(2S)-2-hydroxybutyl]pyrazol-4-yl]pyrazolo[1,5-a]pyrimidine-3-carboxamide]: the results for the Ki in test [1] and in test [3] were 0.25 nM and 0.28 nM, respectively. Further, the half-inhibitory concentration (IC50) in test [2] came out at 32 nM.

For `O=C(Nc1cn(Cc2ncco2)nc1-c1cc2c(cc1OC(F)F)NCCO2)c1cnn2cccnc12` [Example 123, N-[3-[6-(difluoromethoxy)-3,4-dihydro-2H-1,4-benzoxazin-7-yl]-1-(oxazol-2-ylmethyl)pyrazol-4-yl]pyrazolo[1,5-a]pyrimidine-3-carboxamide], the Ki in test [1] (read-out: JAK2 Ki) came to 0.28 nM; in test [3], 0.36 nM. Further, in test [2], the IC50 stood at 24 nM.

For the compound `O=C(Nc1cn(Cc2ncco2)nc1-c1cc2c(cc1OC(F)F)NCCS2)c1cnn2cccnc12` [Example 124, N-[3-[6-(difluoromethoxy)-3,4-dihydro-2H-1,4-benzothiazin-7-yl]-1-(oxazol-2-ylmethyl)pyrazol-4-yl]pyrazolo[1,5-a]pyrimidine-3-carboxamide], the inhibitory constant (Ki) came out at 0.15 nM in test [1] (read-out: JAK2 Ki) and 0.25 nM in test [3]. For the same compound, the IC50 in test [2] turned out to be 20 nM.

In the case of `Cn1nnnc1Cn1cc(NC(=O)c2cnn3cccnc23)c(-c2cc3c(cc2OC(F)F)NCCS3)n1` [Example 127, N-[3-[6-(difluoromethoxy)-3,4-dihydro-2H-1,4-benzothiazin-7-yl]-1-[(1-methyltetrazol-5-yl)methyl]pyrazol-4-yl]pyrazolo[1,5-a]pyrimidine-3-carboxamide], the Ki in test [1] (read-out: JAK2 Ki) was 0.06 nM; in test [3], 0.12 nM. In test [2], the IC50 is 14 nM.

With `Cn1nnc(Cn2cc(NC(=O)c3cnn4cccnc34)c(-c3cc4c(cc3OC(F)F)NCCS4)n2)n1` [Example 128, N-[3-[6-(difluoromethoxy)-3,4-dihydro-2H-1,4-benzothiazin-7-yl]-1-[(2-methyltetrazol-5-yl)methyl]pyrazol-4-yl]pyrazolo[1,5-a]pyrimidine-3-carboxamide], the Ki came to 0.09 nM in test [1] (read-out: JAK2 Ki) and 0.14 nM in test [3]. The IC50 in test [2] was determined as 7 nM.

For `CN(C)C(=O)Cn1cc(NC(=O)c2cnn3cccnc23)c(-c2cc3sncc3cc2OC(F)F)n1` [Example 129, N-[3-[5-(difluoromethoxy)-1,2-benzothiazol-6-yl]-1-[2-(dimethylamino)-2-oxo-ethyl]pyrazol-4-yl]pyrazolo[1,5-a]pyrimidine-3-carboxamide], the values for the Ki in test [1] (read-out: JAK2 Ki) and in test [3] were 0.47 nM and 0.2 nM, respectively. Also, the IC50 in test [2] was found to be 11 nM.

As for `CCN(C)C(=O)Cn1cc(NC(=O)c2cnn3cccnc23)c(-c2cc3c(cc2OC(F)F)NCCO3)n1` [Example 130, N-[3-[6-(difluoromethoxy)-3,4-dihydro-2H-1,4-benzoxazin-7-yl]-1-[2-[ethyl(methyl)amino]-2-oxo-ethyl]pyrazol-4-yl]pyrazolo[1,5-a]pyrimidine-3-carboxamide], the inhibitory constant (Ki) in test [1] (read-out: JAK2 Ki) came to 0.47 nM; in test [3] it was 0.31 nM. Moreover, the 50% inhibitory concentration (IC50) in test [2] is 59 nM.

As for `Cn1cc(Cn2cc(NC(=O)c3cnn4cccnc34)c(-c3cc4c(cc3OC(F)F)NCCS4)n2)nn1` [Example 131, N-[3-[6-(difluoromethoxy)-3,4-dihydro-2H-1,4-benzothiazin-7-yl]-1-[(1-methyltriazol-4-yl)methyl]pyrazol-4-yl]pyrazolo[1,5-a]pyrimidine-3-carboxamide], the Ki in test [1] (read-out: JAK2 Ki) stood at 0.08 nM; in test [3], 0.12 nM. Further, the IC50 in test [2] turned out to be 30 nM.

For the compound `O=C(Nc1cn(CC(=O)N2CCC(F)(F)C2)nc1-c1cc2c(cc1OC(F)F)NCCO2)c1cnn2cccnc12` [Example 132, N-[3-[6-(difluoromethoxy)-3,4-dihydro-2H-1,4-benzoxazin-7-yl]-1-[2-(3,3-difluoropyrrolidin-1-yl)-2-oxo-ethyl]pyrazol-4-yl]pyrazolo[1,5-a]pyrimidine-3-carboxamide], the results for the Ki in test [1] (read-out: JAK2 Ki) and in test [3] were 0.4 nM and 0.36 nM, respectively. The concentration for half-maximal inhibition (IC50) in test [2] stood at 31 nM.

In the case of `Cn1nncc1Cn1cc(NC(=O)c2cnn3cccnc23)c(-c2cc3c(cc2OC(F)F)NCCO3)n1` [Example 133, N-[3-[6-(difluoromethoxy)-3,4-dihydro-2H-1,4-benzoxazin-7-yl]-1-[(3-methyltriazol-4-yl)methyl]pyrazol-4-yl]pyrazolo[1,5-a]pyrimidine-3-carboxamide], the inhibition constant Ki stood at 0.21 nM in test [1] (read-out: JAK2 Ki) and 0.26 nM in test [3]. Also, the IC50 in test [2] was determined as 17 nM.

For the compound `O=C(Nc1cn(CC2(O)CCOCC2)nc1-c1cc2c(cc1OC(F)F)NCCO2)c1cnn2cccnc12` [Example 134, N-[3-[6-(difluoromethoxy)-3,4-dihydro-2H-1,4-benzoxazin-7-yl]-1-[(4-hydroxytetrahydropyran-4-yl)methyl]pyrazol-4-yl]pyrazolo[1,5-a]pyrimidine-3-carboxamide], the Ki in test [1] (read-out: JAK2 Ki) was 0.47 nM; in test [3], 0.4 nM. Moreover, the half-maximal inhibitory concentration (IC50) in test [2] is 23 nM.

`Cn1nnnc1Cn1cc(NC(=O)c2cnn3cccnc23)c(-c2cc3c(cc2OC(F)F)NCCO3)n1` [Example 135, N-[3-[6-(difluoromethoxy)-3,4-dihydro-2H-1,4-benzoxazin-7-yl]-1-[(1-methyltetrazol-5-yl)methyl]pyrazol-4-yl]pyrazolo[1,5-a]pyrimidine-3-carboxamide]: the Ki in test [1] (read-out: JAK2 Ki) amounted to 0.14 nM; in test [3], 0.19 nM. In addition, in test [2], the IC50 stood at 26 nM.

Take `Cn1nnc(Cn2cc(NC(=O)c3cnn4cccnc34)c(-c3cc4c(cc3OC(F)F)NCCO4)n2)n1` [Example 136, N-[3-[6-(difluoromethoxy)-3,4-dihydro-2H-1,4-benzoxazin-7-yl]-1-[(2-methyltetrazol-5-yl)methyl]pyrazol-4-yl]pyrazolo[1,5-a]pyrimidine-3-carboxamide]: the results for the Ki in test [1] (read-out: JAK2 Ki) and in test [3] were 0.17 nM and 0.23 nM, respectively. In addition, the concentration for half-maximal inhibition (IC50) in test [2] amounted to 21 nM.

Consider `Cn1cc(NC(=O)c2cnn3cccnc23)c(-c2cc3c(cc2OC(F)F)NC(=O)CO3)n1` [Example 137, N-[3-[6-(difluoromethoxy)-3-oxo-4H-1,4-benzoxazin-7-yl]-1-methyl-pyrazol-4-yl]pyrazolo[1,5-a]pyrimidine-3-carboxamide], for which the Ki in test [1] (read-out: JAK2 Ki) was determined as 0.08 nM; in test [3], 0.09 nM. In addition, the IC50 in test [2] was 8 nM.

As for `O=C(Nc1cn(CC(=O)N2CC(F)(F)C2)nc1-c1cc2c(cc1OC(F)F)NCCO2)c1cnn2cccnc12` [Example 138, N-[1-[2-(3,3-difluoroazetidin-1-yl)-2-oxo-ethyl]-3-[6-(difluoromethoxy)-3,4-dihydro-2H-1,4-benzoxazin-7-yl]pyrazol-4-yl]pyrazolo[1,5-a]pyrimidine-3-carboxamide], the Ki in test [1] (read-out: JAK2 Ki) was determined as 0.32 nM; in test [3] it was 0.26 nM. The half-maximal inhibitory concentration (IC50) in test [2] is 36 nM.
